Source: patent publication EP2848286A1, “Cosmetic composition comprising chicoric acid” (DSM IP Assets B.V., priority 2013, dated 2015)
Like-named read-outs stand apart in the source and are kept apart here.

Test system: C3H10 T1/2 cells
Test: Adipocyte differentiation / automated determination of lipid accumulation in adipocytes
Type: cell-based
Details: Mus musculus, C3H 10T1/2, 168 h, 50 micromolar chicoric acid, differentiated C3H10 T1/2 adipocytes, 7 days in DM-Supplemented (200nM Insulin, 10µM Rosiglitazone)
Method: C3H10 T1/2 cells were seeded on Collagen Type I coated 24-well plates at a cell density of 3.8x10^4 cells/mL in Differentiation Base medium (DM-Base), containing DMEM without Phenol Red, supplemented with 10% FCS, 4mM L-Glutamine and 1% Pen/Strep (v/v) at 37° C in an incubator with 5% CO2 atmosphere and 85%-90% relative humidity over 72hours. After this pre-incubation, DM-Base is replaced by DM-Supplemented, containing DM-Base plus 200nM Insulin, plus 10µM Rosiglitazone. Test compounds (e.g.: chicoric acid) were added in DM-Supplemented, and kept in culture for 7 consecutive days. Each experiment was performed in triplicates. Every second day medium and compounds were renewed.
Cells were fixed by adding 1mL of 60% 2-Propanot in PBS to each well and incubated for 1.5h at 4°C. The cells were then twice washed with 1mL PBS/well. […]
Lipid droplets were quantified with the Cellomics® Array Scan® VTI HCS Reader. Fat droplets were detected with the provided SpotDetector® Bio-Application. The fluorescent dye, BODIPY® 493/503, was used to visualise and quantify fat droplets (number, area, intensity) in differentiated C3H10 T1/2 adipocytes. […] Channel one (Ch1) applies the XF93-Hoechst filter and is the focus channel in which objects (nuclei) are identified, whereas the spots (fat droplets) are detected in channel two (Ch2) using a XF93-FITC filter.

SMILES: O=C(/C=C/c1ccc(O)c(O)c1)O[C@H](C(=O)O)[C@H](OC(=O)/C=C/c1ccc(O)c(O)c1)C(=O)O (stereo in doubt) [chicoric acid, Chicoric acid]
- inhibition at 50 µM (read-out: decrease in the average number of lipid droplets per adipocyte): 69%
- inhibition at 50 µM (read-out: decrease in the average size of the lipid droplets in adipocytes): 42%
